Tests used:
Format in all cases: biochemical
[1] = molecular target: T1, amylase derived from human pancreatic juice (human P type α-amylase) (Homo sapiens, UniProt P04746); assay: Hydrolysis rate, P type α-amylase; conditions: relative to hydrolysis rate of 3 mM G5CNP defined as 10, substrate 7-9 times the Km
T1 sequence (P04746 16-511): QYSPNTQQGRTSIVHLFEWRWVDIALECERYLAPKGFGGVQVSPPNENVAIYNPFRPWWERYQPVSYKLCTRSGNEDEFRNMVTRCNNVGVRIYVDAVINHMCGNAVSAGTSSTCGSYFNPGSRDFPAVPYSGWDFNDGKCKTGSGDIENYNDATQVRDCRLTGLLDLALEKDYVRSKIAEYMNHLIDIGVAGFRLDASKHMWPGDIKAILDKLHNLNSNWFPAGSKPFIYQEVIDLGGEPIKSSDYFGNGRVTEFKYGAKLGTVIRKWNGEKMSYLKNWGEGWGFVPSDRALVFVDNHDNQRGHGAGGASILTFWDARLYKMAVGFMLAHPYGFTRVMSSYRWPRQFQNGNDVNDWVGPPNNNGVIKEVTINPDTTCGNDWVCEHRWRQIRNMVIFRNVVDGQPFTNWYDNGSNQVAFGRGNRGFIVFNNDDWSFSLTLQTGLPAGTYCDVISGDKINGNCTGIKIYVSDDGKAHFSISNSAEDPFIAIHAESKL
Protocol: (§1) The coupled enzyme solution was prepared in the same manner as in the step (2) of Example 5.
(§2) Commercially available human P type and S type α-amylase solutions having a concentration of ca. 500 IU/l were prepared in the same manner as in the step (3) of Example 5.
(§3) With 250 μl of the α-amylase solution prepared in (iii) was mixed 1.0 ml of the coupled enzyme. The mixture was heated at 37° C. for 1 minute, and 2.0 ml of the substrate solution was added with stirring to the mixture. The variation of absorbance at 400 nm was measured for 2 minutes after heating the mixture at 37° C. for 2 minutes. The hydrolysis rate of each substrate, namely the variable absorbance per unit time was expressed with the relative values to the hydrolysis rate of 3 mM G5CNP (the reference substrate) which is defined as 10.
(§4) P: amylase derived from human pancreatic juice, […]

[2] = molecular target: T2, amylase derived from human saliva (human S type α-amylase) (Homo sapiens, UniProt P0DUB6); assay: Patterns of action (hydrolyzed product by HPLC), S type α-amylase; conditions: 0.5 mM substrate, 37° C., 20 minutes
T2 sequence (P0DUB6 16-511): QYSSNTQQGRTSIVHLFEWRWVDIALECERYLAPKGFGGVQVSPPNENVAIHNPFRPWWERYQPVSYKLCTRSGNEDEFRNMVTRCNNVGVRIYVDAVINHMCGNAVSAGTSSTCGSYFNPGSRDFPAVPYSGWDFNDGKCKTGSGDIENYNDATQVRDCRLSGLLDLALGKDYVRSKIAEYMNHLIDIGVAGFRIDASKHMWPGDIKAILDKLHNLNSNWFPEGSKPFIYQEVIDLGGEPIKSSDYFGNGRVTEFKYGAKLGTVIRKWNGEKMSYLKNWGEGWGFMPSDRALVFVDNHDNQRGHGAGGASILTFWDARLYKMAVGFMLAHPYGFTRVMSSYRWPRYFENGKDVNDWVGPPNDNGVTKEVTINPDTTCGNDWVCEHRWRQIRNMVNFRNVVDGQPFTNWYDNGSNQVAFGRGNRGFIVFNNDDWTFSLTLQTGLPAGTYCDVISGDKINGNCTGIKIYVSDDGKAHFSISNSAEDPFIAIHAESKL
Protocol: as §2
(§5) To 1.0 ml of the substrate solution was added 100 μl of the α-amylase solution prepared in the paragraph (iii) of the aforementioned hydrolysis rate, and the mixture, after stirred sufficiently, was subjected to reaction at 37° C. for 20 minutes. The hydrolyzed product was determined quantitatively by the high performance liquid chromatography of the reaction mixture.
(§6) S: amylase derived from human saliva.

[3] = molecular target: T2, amylase derived from human saliva (human S type α-amylase); assay: Hydrolysis rate, S type α-amylase; conditions: relative to hydrolysis rate of 3 mM G5CNP defined as 10, substrate 7-9 times the Km
Protocol: as §1, §2, §3, §6

[4] = molecular target: T1, amylase derived from human pancreatic juice (human P type α-amylase); assay: Km value, P type α-amylase; conditions: pH 7.0, 37° C., Lineweaver-Burk
Protocol: Km values, hydrolysis rate, water solubility and the patterns of action in the hydrolysis of the present substrates 2-chloro-4-nitrophenyl 5^5 -eno-4^5 -O-mesyl-β-D-maltopentaoside (EMG5CNP) and 2-chloro-4-nitrophenyl 6^5 -azido-6^5 -deoxy- β-D-maltopentaoside (ADG5CNP) obtained in Example were examined in accordance with the following methods.
Substrate solutions were prepared by dissolving in a 50 mM phosphate buffer (pH=7.0) containing 40 mM NaCl and 2 mM MgCl2 a substrate to 0.16, 0.32, 0.48, 0.64, 0.80 and 0.96 mM, respectively.
The Km value of each substrate solution was obtained by measuring the hydrolysis rate of the substrate in accordance with the same procedure as in the measurement of hydrolysis rate described below and roughly calculating the Lineweaver-Burk's reciprocal plot (see "Tanpaku-Kohso no Jikken-hou", ed. Takeichi Horio & Jinpei Yamashita, Nanko-do, 1981).
Each substrate was dissolved in a 50 mM phosphate buffer (pH=7.0) containing 40 mM NaCl and 2 mM MgCl2 to make three substrate solutions in a concentration of 0.8-1.6 times and three substrate solutions in a concentration of 1.6-3.2 times per the roughly calculated Km value in the aforementioned paragraph (ii).
The Km value was calculated in accordance with the same procedure as in the aforementioned paragraph (ii).
as §4

[5] = molecular target: T1, amylase derived from human pancreatic juice (human P type α-amylase); assay: Patterns of action (hydrolyzed product by HPLC), P type α-amylase; conditions: 0.5 mM substrate, 37° C., 20 minutes
Protocol: as §2, §5, §4

| Structure (SMILES) | Hydrolysis rate [1] | Patterns of action, hydrolyzed product G2CNP [2] | Patterns of action, hydrolyzed product G3CNP [2] | Patterns of action, hydrolyzed product G4CNP [2] | Patterns of action, hydrolyzed product GCNP [2] | Hydrolysis rate [3] | Km [4] | Patterns of action, hydrolyzed product G2CNP [5] | Patterns of action, hydrolyzed product G3CNP [5] | Patterns of action, hydrolyzed product G4CNP [5] | Patterns of action, hydrolyzed product GCNP [5] |
| --- | --- | --- | --- | --- | --- | --- | --- | --- | --- | --- | --- |
| [N-]=[N+]=NC[C@H]1O[C@H](O[C@H]2[C@H](O)[C@@H](O)[C@@H](O[C@H]3[C@H](O)[C@@H](O)[C@@H](O[C@H]4[C@H](O)[C@@H](O)[C@@H](O[C@H]5[C@H](O)[C@@H](O)[C@H](Oc6ccc([N+](=O)[O-])cc6Cl)O[C@@H]5CO)O[C@@H]4CO)O[C@@H]3CO)O[C@@H]2CO)[C@H](O)[C@@H](O)[C@@H]1O [ADG5CNP, 2-chloro-4-nitrophenyl 6^5-azido-6^5-deoxy-β-D-maltopentaoside] | 10 | 100 mol % | 0 mol % | 0 mol % | 0 mol % | 10 | 170 µM | 97 mol % | 3 mol % | 0 mol % | 0 mol % |
| C=C1O[C@H](O[C@H]2[C@H](O)[C@@H](O)[C@@H](O[C@H]3[C@H](O)[C@@H](O)[C@@H](O[C@H]4[C@H](O)[C@@H](O)[C@@H](O[C@H]5[C@H](O)[C@@H](O)[C@H](Oc6ccc([N+](=O)[O-])cc6Cl)O[C@@H]5CO)O[C@@H]4CO)O[C@@H]3CO)O[C@@H]2CO)[C@H](O)[C@@H](O)[C@@H]1OS(C)(=O)=O [EMG5CNP, 2-chloro-4-nitrophenyl 5^5-eno-4^5 -O-mesyl-β-D-maltopentaoside] | 10 | 97 mol % | 0 mol % | 0 mol % | 3 mol % | 10 | 130 µM | 97 mol % | 0 mol % | 0 mol % | 3 mol % |

Reference: patent publication US5302514A, “Maltooligoside derivative, reagent for determining α-amylase activity containing the same as effective ingredient and a process for determining the α-amylase activity using same” (Kikkoman Corporation, priority 1991, dated 1994)
